A short description of data set [1]: Ionisation constant, pKa of the compound. Format: physicochemical.
A short description of data set [2]: Partition coefficient, log P of the compound. Particulars: octanol/water. Format: physicochemical.
In data set [3] the test system is Trypanosoma cruzi. In words: Antiparasitic activity against Trypanosoma cruzi MF epimastigotes after 7 days by nephelometry. The conditions noted are these: 168 h. Format: functional, organism-based.
Data set [4] relates to Trypanosoma cruzi. In words: Inhibition of oxygen uptake in Trypanosoma cruzi MF epimastigotes at 300 uM by polarography. In kind it is functional.
The nature of data set [5]: Ionisation constant, pKa corresponding to weak base of […] benzimidazole ring. In kind it is physicochemical.
A short description of data set [6]: Ionisation constant, pKa corresponding to acid proton of […] benzimidazole ring. In kind it is physicochemical.
Data set [7] is described as follows: Effective permeability by HPLC-based PAMPA. Particulars: read-out: permeability. In kind it is ADME. A general note: PAMPA measures passive passage across an artificial lipid membrane.
The nature of data set [8]: Effective permeability by UV-based PAMPA. Format: ADME. Particulars: read-out: permeability.

Molecules are shown by their SMILES.

As usually defined, the pKa is the negative logarithm of the acid dissociation constant. Read a low pKa as a stronger acid or weaker base. As a reminder, the logP is the decadic logarithm of the partition coefficient of the neutral form, usually between octanol and water. Read a high logP as a more lipophilic compound. For orientation: IC50 means the concentration needed to halve the response being measured. In the case of `O=C(c1ccc(Cl)cc1)n1c(-c2ccccc2[N+](=O)[O-])nc2ccccc21`, the pKa in data set [1] was found to be 4.69. Also, the logP in data set [2] was 3.6. In the data set on Trypanosoma cruzi [3], this molecule displayed an IC50 of 78 µM.

In the case of `COc1ccc(C(=O)n2c(-c3ccccc3[N+](=O)[O-])nc3ccccc32)cc1`, the pKa in data set [1] is 4.71. Moreover, in data set [2], the logP was 3.2. Further, the IC50 with Trypanosoma cruzi [3] came out at 64 µM.

For the molecule `O=C(c1ccc([N+](=O)[O-])cc1)n1c(-c2ccccc2[N+](=O)[O-])nc2ccccc21`, in data set [1], the pKa was determined as 4.79. Further, the logP in data set [2] stood at 2.8. The molecule further returned an IC50 in the data set on Trypanosoma cruzi [3] of 80 µM.

A word on the inhibition: it is the relative decrease from the control value, in per cent. A higher inhibition goes with a response far below the control. `O=C(c1ccccc1)n1c(-c2ccccc2[N+](=O)[O-])nc2ccccc21` returned a pKa in data set [1] of 4.9. For the same molecule, in data set [2], the log partition coefficient (logP) is 3.1. Further, the IC50 in the data set with Trypanosoma cruzi [3] came to 94 µM. At 300 µM the inhibition in the data set with Trypanosoma cruzi [4] was 20%.

For the molecule `O=[N+]([O-])c1ccccc1-c1nc2ccccc2[nH]1`, the pKa came to 5.69 in data set [5] and 11.4 in data set [6]. Moreover, the logP in data set [2] stood at 2.2. Besides, the Papp in data set [7] was found to be 80 nm/s; in data set [8], 120 nm/s. This molecule also had an IC50 with Trypanosoma cruzi [3] of 117 µM. The molecule further showed an inhibition at 300 µM in the data set on Trypanosoma cruzi [4] of 40%.

The values are drawn from ChEMBL document CHEMBL1156548, “Determination and characterization of new benzimidazoles with activity against Trypanosoma cruzi by UV spectroscopy and HPLC” (Bioorg Med Chem, 2008).
